{
  "source": "patent US20260125359A1",
  "about": "“HETEROARYL COMPOUNDS AS MULTI-TARGET PROTEIN KINASE INHIBITORS” (FUJIAN HAIXI PHARMACEUTICALS CO., LTD., priority 2023, published 2026)",
  "system": "M-NFS-60 cells",
  "experiment": "M-NFS-60 cell in vitro assay (CCK, 48 h, M-CSF factor medium)",
  "format": "cell-based",
  "details": "M-NFS-60 cells; read-out: M-NFS-60cellassay IC50",
  "summary_of_the_method": "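IC50 values were fitted from CCK absorbance (450 nm, 2 h development) after 48 h compound treatment. Cells: M-NFS-60, seeded 2000/well and rested 4 h, grown in medium carrying 25 ng/ml M-CSF factor plus 10% serum; compounds serially diluted in DMSO.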",
  "data": [
    {"compound": "CN(c1cnc2cn(C)nc2c1)[C@H]1CCc2c(C(=O)Nc3ccc4c(c3)OC(F)(F)O4)cccc21", "note": "[Compound 80u]", "values": [
      {"measurement": "IC50", "result": "< 50", "unit": "nM"}
    ]},
    {"compound": "Cn1cc2ncc(N[C@H]3CCc4c(Nc5noc(C6(C)COC6)n5)cccc43)cc2n1", "note": "[Compound 92, (S)—N^1-(2-methyl-2H-pyrazolo[4,3-b]pyridin-6-yl)-N^4-(5-(3-methyloxetan-3-7)-1,2,4-oxadiazol-3-yl)-2,3-dihydro-1H-indene-1,4-d]", "values": [
      {"measurement": "IC50", "result": "> 500", "unit": "nM"}
    ]},
    {"compound": "CN(c1cnc2cnn(C)c2c1)[C@H]1CCc2c(C(=O)Nc3ccc4c(c3)OC(F)(F)O4)cccc21", "note": "[Compound 80i]", "values": [
      {"measurement": "IC50", "result": "50 to 200", "unit": "nM"}
    ]},
    {"compound": "CN(C)Cc1ccc(NC(=O)c2cccc3c2CC[C@@H]3N(C)c2cnc3cnn(C)c3c2)cc1", "note": "[Compound 80g]", "values": [
      {"measurement": "IC50", "result": "200 to 500", "unit": "nM"}
    ]},
    {"compound": "Cn1cc2ncc(N[C@H]3CCc4c(C(=O)Nc5cccc(C6CC6)c5)cccc43)cc2n1", "note": "[Compound 74a]", "values": [
      {"measurement": "IC50", "result": "< 50", "unit": "nM"}
    ]},
    {"compound": "Cn1cc(-c2cncc(N[C@H]3CCc4c(NCc5cccc(F)c5)cccc43)n2)cn1", "note": "[Compound 60d]", "values": [
      {"measurement": "IC50", "result": "> 500", "unit": "nM"}
    ]},
    {"compound": "Cc1ccc(F)c(NC(=O)c2cccc3c2CC[C@@H]3Nc2cncc(-c3cnn(C)c3)c2)c1", "note": "[Compound 14ac]", "values": [
      {"measurement": "IC50", "result": "< 50", "unit": "nM"}
    ]},
    {"compound": "Cn1cc(-c2cnc(N)c(O[C@H]3CCc4c(NC(=O)c5cccc(CN6CCCCC6)c5)cccc43)c2)cn1", "note": "[Compound 3h]", "values": [
      {"measurement": "IC50", "result": "> 500", "unit": "nM"}
    ]},
    {"compound": "CN(c1cncc(-c2cnn(C)c2)c1)[C@H]1CCc2c(NC(=O)c3ccc(C(F)(F)F)cc3)cccc21", "note": "[Compound 23, (S)—N-(1-(methyl (5-(1-methyl-1H-pyrazol-4-yl)pyridin-3-yl)amino)-2,3-dihydro-1H-inden-4-yl)-4-(trifluoromethyl)benzamide]", "values": [
      {"measurement": "IC50", "result": "> 500", "unit": "nM"}
    ]},
    {"compound": "Cc1ncc(-c2cnn(C)c2)cc1O[C@H]1CCc2c(NC(=O)c3ccc(C(F)(F)F)cc3)cccc21", "note": "[Compound 72, (S)—N-(1-((2-methyl-5-(1-methyl-1H-pyrazol-4-yl)pyridin-3-yl)oxy)-2,3-dihydro-1H-inden-4-yl)-4-(trifluoromethyl)benzamide]", "values": [
      {"measurement": "IC50", "result": "> 500", "unit": "nM"}
    ]},
    {"compound": "Cn1cc2ncc(N[C@H]3CCc4c(Nc5cc(C67CC(C6)C7)on5)cccc43)cc2n1", "note": "[Compound 91r]", "values": [
      {"measurement": "IC50", "result": "< 50", "unit": "nM"}
    ]},
    {"compound": "Cn1cc2ncc(N[C@H]3CCc4c(Nc5cc(C67CC(F)(C6)C7)on5)cccc43)cc2n1", "note": "[Compound 91s]", "values": [
      {"measurement": "IC50", "result": "< 50", "unit": "nM"}
    ]},
    {"compound": "Cn1cc2ncc(O[C@H]3CCc4c(C(=O)Nc5cccc(C6CC6)c5)cccc43)cc2n1", "note": "[Compound 76af]", "values": [
      {"measurement": "IC50", "result": "< 50", "unit": "nM"}
    ]},
    {"compound": "COc1cccc(NC(=O)c2cccc3c2CC[C@@H]3N(C)c2cnc3cnn(C)c3c2)c1F", "note": "[Compound 80x]", "values": [
      {"measurement": "IC50", "result": "50 to 200", "unit": "nM"}
    ]},
    {"compound": "Cn1cc(-c2cncc(N[C@H]3CCc4c(Nc5nc(C(C)(C)C)no5)cccc43)c2)cn1", "note": "[Compound 42k]", "values": [
      {"measurement": "IC50", "result": "200 to 500", "unit": "nM"}
    ]},
    {"compound": "COc1cccc(C(=O)Nc2cccc3c2CC[C@@H]3Oc2cc(-c3cnn(C)c3)cnc2N)c1", "note": "[Compound 3b]", "values": [
      {"measurement": "IC50", "result": "< 50", "unit": "nM"}
    ]},
    {"compound": "Cn1cc(-c2cncc(NC3CC(=O)c4c(NC(=O)c5ccc(C(F)(F)F)cc5)cccc43)c2)cn1", "note": "(centres unmarked) [Compound 70, N-(1-((5-(1-methyl-1H-pyrazol-4-yl)pyridin-3-yl)amino)-3-oxo-2,3-dihydro-1H-inden-4-yl)-4-(trifluoromethyl)benzamide]", "values": [
      {"measurement": "IC50", "result": "> 500", "unit": "nM"}
    ]}
  ]
}
